In ChEMBL document CHEMBL3217434, “Matrix-based multiparameter optimisation of glucokinase activators: the discovery of AZD1092” (Medchemcomm, 2011):
Converted amounts (≈) assume the structure as drawn.

Key:
[1] = Lipophilicity, log D of the compound; type: physicochemical; settings: octanol/water
[2] = Volume of distribution at steady state in rat; type: ADME, organism-based; settings: in vivo, read-out: Vdss
[3] = Oral bioavailability in rat; type: ADME, organism-based; settings: in vivo
Hexokinase-4 = molecular target: T1, Hexokinase-4 (Homo sapiens, UniProt P35557); assay: Activation of glucokinase (unknown origin)
T1 sequence (P35557 whole entry): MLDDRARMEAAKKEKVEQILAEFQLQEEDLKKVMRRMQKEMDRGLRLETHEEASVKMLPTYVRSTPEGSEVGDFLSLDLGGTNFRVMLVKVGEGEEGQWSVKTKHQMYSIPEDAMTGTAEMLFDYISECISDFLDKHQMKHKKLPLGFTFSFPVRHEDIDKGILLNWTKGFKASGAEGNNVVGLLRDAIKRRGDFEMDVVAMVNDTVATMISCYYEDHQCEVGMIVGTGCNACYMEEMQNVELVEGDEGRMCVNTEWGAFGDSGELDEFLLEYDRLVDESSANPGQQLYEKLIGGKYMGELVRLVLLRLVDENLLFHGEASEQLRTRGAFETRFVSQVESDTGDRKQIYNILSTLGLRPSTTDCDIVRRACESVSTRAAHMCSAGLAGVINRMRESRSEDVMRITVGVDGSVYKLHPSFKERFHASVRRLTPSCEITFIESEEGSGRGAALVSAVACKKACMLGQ

[4] = Clearance in rat; type: ADME, organism-based; settings: in vivo
[5] = Solubility of the compound; type: physicochemical
[6] = molecular target: Voltage-gated inwardly rectifying potassium channel KCNH2 (Homo sapiens, UniProt Q12809); assay: Inhibition of human ERG
[7] = Apparent permeability from apical to basolateral side of human Caco2 cells; type: ADME, cell-based; settings: Caco-2
Rattus norvegicus [8] = assay: Antidiabetic activity in high fat fed Zucker rat assessed as reduction of AUC of plasma glucose level at 10 mg/kg by oral glucose tolerance test; type: functional; design: scale not given: the % may be the effect or the level left
[9] = Clearance in dog; type: ADME, organism-based, Canis lupus familiaris; settings: in vivo
[10] = Oral bioavailability in dog; type: ADME, organism-based, Canis lupus familiaris; settings: in vivo
[11] = Volume of distribution at steady state in dog; type: ADME, organism-based, Canis lupus familiaris; settings: in vivo, read-out: Vdss
Rattus norvegicus [12] = assay: Antidiabetic activity in high fat fed Zucker rat assessed as reduction of AUC of plasma glucose level at 3 mg/kg by oral glucose tolerance test; type: functional; design: scale not given: the % may be the effect or the level left

Sequence of Voltage-gated inwardly rectifying potassium channel KCNH2 (Q12809 whole entry): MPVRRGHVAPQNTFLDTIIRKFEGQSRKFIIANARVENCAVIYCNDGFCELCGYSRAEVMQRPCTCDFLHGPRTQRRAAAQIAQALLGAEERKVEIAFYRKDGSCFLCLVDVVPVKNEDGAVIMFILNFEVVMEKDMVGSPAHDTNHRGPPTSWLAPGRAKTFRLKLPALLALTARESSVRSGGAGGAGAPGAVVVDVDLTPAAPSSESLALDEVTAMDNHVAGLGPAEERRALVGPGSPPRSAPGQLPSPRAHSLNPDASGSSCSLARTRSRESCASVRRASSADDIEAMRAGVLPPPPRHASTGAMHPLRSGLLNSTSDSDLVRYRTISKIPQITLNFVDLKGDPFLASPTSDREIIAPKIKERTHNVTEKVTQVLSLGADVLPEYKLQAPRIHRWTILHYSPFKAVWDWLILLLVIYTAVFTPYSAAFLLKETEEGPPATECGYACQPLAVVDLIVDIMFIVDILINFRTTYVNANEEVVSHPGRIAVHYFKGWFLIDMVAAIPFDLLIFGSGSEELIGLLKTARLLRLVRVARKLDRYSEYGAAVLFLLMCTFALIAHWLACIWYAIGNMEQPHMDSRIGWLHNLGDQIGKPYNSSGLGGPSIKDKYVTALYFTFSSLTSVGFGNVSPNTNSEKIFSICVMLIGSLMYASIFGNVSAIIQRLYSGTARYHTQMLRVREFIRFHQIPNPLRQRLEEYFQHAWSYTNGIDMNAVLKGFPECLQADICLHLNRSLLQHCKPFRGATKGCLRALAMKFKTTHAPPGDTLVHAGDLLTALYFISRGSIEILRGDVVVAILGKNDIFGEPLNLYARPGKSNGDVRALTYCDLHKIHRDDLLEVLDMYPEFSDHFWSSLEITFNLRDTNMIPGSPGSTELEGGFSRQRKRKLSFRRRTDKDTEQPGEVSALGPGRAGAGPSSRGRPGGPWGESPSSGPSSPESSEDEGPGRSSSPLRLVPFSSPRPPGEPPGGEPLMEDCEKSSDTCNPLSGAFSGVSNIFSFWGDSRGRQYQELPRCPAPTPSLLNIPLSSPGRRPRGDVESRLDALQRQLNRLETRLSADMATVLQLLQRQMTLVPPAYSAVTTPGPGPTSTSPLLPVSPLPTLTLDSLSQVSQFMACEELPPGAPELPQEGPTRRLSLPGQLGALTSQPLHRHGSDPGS

logD [1]	Vd [2] [L/kg]	bioavailability [3] [%]	EC50 (Hexokinase-4) [nM]	clearance [4] [mL/min/kg]	solubility [5] [µM]	Papp A→B [7] [×10⁻⁶ cm/s]	clearance [9] [mL/min/kg]	bioavailability [10] [%]	Vd [11] [L/kg]	Compound	IC50 [6] [nM]	Activity (Rattus norvegicus [8]) [%]	Activity (Rattus norvegicus [12]) [%]
1.7	1.9	78	40	31	> 1000	1.7	–	–	–	C[C@@H](CO)Oc1cc(Oc2ccc(C(=O)N(C)C)cc2)cc(C(=O)Nc2ccn(C)n2)c1	> 100000	–	–
1.8	1.8	30	30	14	350 (≈ 158 µg/mL)	1.8	14	51	1.3	C[C@@H](CO)Oc1cc(Oc2ccc(C(=O)N3CCC3)cc2)cc(C(=O)Nc2ccn(C)n2)c1	70000	–	24

Second part, the molecule before the results:

Compound	logD [1]	Vd [2] [L/kg]	bioavailability [3] [%]	EC50 (Hexokinase-4) [nM]	clearance [4] [mL/min/kg]	solubility [5] [µM]	Papp A→B [7] [×10⁻⁶ cm/s]	clearance [9] [mL/min/kg]	bioavailability [10] [%]	Vd [11] [L/kg]	IC50 [6] [nM]	Activity (Rattus norvegicus [8]) [%]	Activity (Rattus norvegicus [12]) [%]
COC[C@H](C)Oc1cc(Oc2ccc(C(=O)N(C)C)cc2)cc(C(=O)Nc2cc[nH]n2)c1	1.8	1.1	27	50	34	730 (≈ 320 µg/mL)	2.3	–	–	–	> 95000	–	–
COC[C@H](C)Oc1cc(Oc2ccc(S(C)(=O)=O)cc2)cc(C(=O)Nc2nccs2)c1	–	0.3	28	–	11	–	–	7.2	11	0.8	–	29	–
COC[C@H](C)Oc1cc(Oc2ccc(S(C)(=O)=O)cc2)cc(C(=O)Nc2nc(C)ns2)c1	–	0.2	71	–	5.6	–	–	0.5	56	0.3	–	–	27
